Columns and labels:
[1] = tested on: insulin-naïve subjects with type 2 diabetes; assay: BEGIN ONCE SIMPLE USE trial: fasting plasma glucose (hexokinase-UV); type: in vivo, human
Source text: (§1) This 26-week, multi-center, open-label, randomized, treat-to-target study compared the efficacy and safety of IDeg administered once daily in combination with metformin in insulin-naïve subjects with type 2 diabetes using two different patient-driven titration algorithms: a “Simple” algorithm (IDegSimple), with dose adjustments based on one pre-breakfast SMBG measurement (N=111) versus a “Step-wise” algorithm (IDegStep-wise), with adjustments based on three consecutive pre-breakfast SMBG values (N=111). IDeg was administered using the FlexTouch® insulin pen (Novo Nordisk A/S, Bagsværd, Denmark), with once-weekly dose titration in both groups.
(§2) HbA1c was analyzed using a Bio-Rad high-performance liquid chromatography method at Visits 1 (screening), 2 (randomization), 14 (Week 12) and 28 (Week 26). Fasting plasma glucose (FPG) blood samples were assayed using a hexokinase-UV method at Visits 2, 14 and 28. At the first visit, subjects were provided with a glucose meter for SMBG measurement and instructions for use; blood glucose was measured with test strips calibrated to plasma glucose to obtain PG-equivalent values presented in this report. Subjects performed SMBG measurements before breakfast weekly after randomization and also performed an 8-point SMBG profile prior to Visits 2, 14 and 28.

[2] = tested on: insulin-naïve subjects with type 2 diabetes; assay: BEGIN ONCE SIMPLE USE 26-week randomized treat-to-target trial: HbA1c / glycemic control; type: in vivo, human; conditions: for HbA1c change from baseline to Week 26 / HbA1c at Week 26: IDeg OD + metformin; for Patients achieving HbA1c<7% without confirmed hypoglycemia / Subjects achieving HbA1c<7.0% at end-of-trial: 26 weeks
Source text: as §1
The study was conducted according to the Declaration of Helsinki (2008) and ICH Good Clinical Practice (1996) guidelines, with prior approval by appropriate ethics committees and patient consent obtained in writing prior to the start of any study-related activities. Eligible participants included insulin-naïve men or women ≥18 years of age, with type 2 diabetes, HbA1c 7.0-10.0% (inclusive), and body mass index (BMI) ≤45.0 kg/m^2, who were treated with ≥1000 mg/day metformin alone or in combination with one or two other oral antidiabetic medications (OADs) (including a sulfonylurea [SU] or glinide, dipeptidyl peptidase-4 [DPP-4] inhibitors, α-glucosidase inhibitors or thiazolidinediones [TZDs]), with unchanged dosing for ≥12 weeks prior to randomization. […] Subjects could be withdrawn from the trial due to withdrawal of consent, not fulfilling inclusion/exclusion criteria (randomized in error), non-compliance, or at the discretion of the investigator due to a safety concern. Subjects who were withdrawn after randomization were not to be replaced. This trial is registered at clinicaltrials.gov: NCT01326026.
as §2

[3] = tested on: insulin-naïve subjects with type 2 diabetes; assay: BEGIN ONCE SIMPLE USE trial: adverse events; conditions: IDegStep-wise arm; 154 days after starting trial drug, liver metastasis, considered unlikely related to treatment
Source text: (§3) This was a multinational (conducted in the US, Spain, Finland, and Germany), Phase 3b, multi-center, two-armed, parallel group, open-label, randomized, treat-to-target study that compared the efficacy and safety of IDeg OD [IDeg 100 U/mL, FlexTouch® pen, Novo Nordisk A/S, Bagsværd, Denmark], adjusted using two different titration algorithms in combination with metformin. The trial consisted of a 26-week period; total study duration was approximately 28 weeks (including 1 week for screening and a 7-day follow-up period). After discontinuing all OADs other than metformin, subjects were randomized 1:1 by an interactive voice/web response system (IV/WRS) to IDegSimple or IDegStep-wise insulin self-titration algorithms, as defined below. Subjects were instructed to self-titrate in accordance with their respective algorithms and continue with their pre-trial metformin dose. At randomization, Week 4 and Week 12, subjects in both treatment arms received diet and exercise counselling by an HCP.
(§4) Adverse events (AEs) and hypoglycemic episodes were documented throughout the study, with confirmed hypoglycemia defined as episodes of severe hypoglycemia (requiring assistance from another person) and episodes with PG value <3.1 mmol/L (56 mg/dL). Nocturnal confirmed hypoglycemic episodes were those occurring between 00:01 h and 05:59 h (inclusive). Laboratory safety variables, insulin dose and body weight were recorded at pre-specified intervals.
(§5) Treatment-emergent AEs, hypoglycaemic episodes, laboratory parameters, physical examination, electrocardiogram (ECG), fundoscopy/fundusphotography, vital signs, PRO (Device-Specific questionnaires I and II) and insulin dose were summarized with descriptive statistics.
(§6) Treatment-emergent events occurring after first exposure and no later than 7 days after last exposure. Safety analysis set. n number of patients with events, % proportion of patients with events, E number of events, R number of events per 100 patient-years.

[4] = tested on: insulin-naïve subjects with type 2 diabetes; conditions: in vivo
Source text: as §3, §4, §5, §6

[5] = tested on: insulin-naïve subjects with type 2 diabetes; conditions: in vivo; remark: listed apart in the source
Source text: This was a multinational (conducted in the US, Spain, Finland, and Germany), Phase 3b, multi-center, two-armed, parallel group, open-label, randomized, treat-to-target study that compared the efficacy and safety of IDeg OD [IDeg 100 U/mL, FlexTouch® pen, Novo Nordisk A/S, Bagsværd, Denmark], adjusted using two different titration algorithms in combination with metformin. The trial consisted of a 26-week period; total study duration was approximately 28 weeks (including 1 week for screening and a 7-day follow-up period). […]
Adverse events (AEs) and hypoglycemic episodes were documented throughout the study, with confirmed hypoglycemia defined as episodes of severe hypoglycemia (requiring assistance from another person) and episodes with PG value <3.1 mmol/L (56 mg/dL). […] Laboratory safety variables, insulin dose and body weight were recorded at pre-specified intervals.
Change from baseline in HbA1c after 26 weeks was analyzed using an analysis of variance (ANOVA) method with treatment, region, sex and antidiabetic therapy at screening as fixed factors, and age and baseline HbA1c as covariates. […] Change in FPG and change in body weight were analyzed using an ANOVA model similar to that used for the primary analysis, but with the relevant baseline value as covariate for each measure. […]

[6] = tested on: people with Type 2 diabetes; conditions: in vivo; cited from earlier work
[7] = tested on: patients with type 2 diabetes; conditions: self-adjusted dose every 3 days from mean of previous 3 days' SMBG; 6 months; cited from earlier work
[8] = tested on: people with Type 2 diabetes; conditions: INSIGHT; initial dose 10 units, increased by 1 unit each day until FPG ≤5.5 mmol/liter; cited from earlier work

## LysB29(Nε-hexadecandioyl-γ-Glu) des(B30) human insulin [IDeg]
[1]; IDegSimple arm
  Fasting plasma glucose at Week 26: 6.1 mmol/L
[1]; IDegStep-wise arm
  Fasting plasma glucose at Week 26: 6.8 mmol/L
[1]; Week 26, 95% CI [−1.30, 0.17]
  Estimated treatment difference (IDegSimple−IDegStep-wise) in FPG: -0.57 mmol/L
[2]; IDegSimple arm (Simple titration algorithm)
  HbA1c change from baseline to Week 26: −1.09%
[2]; IDegSimple arm
  Patients achieving HbA1c<7% without confirmed hypoglycemia: 40.6%
  Subjects achieving HbA1c<7.0% at end-of-trial: 56.8%
  HbA1c at Week 26: 7.0%
[2]; IDegStep-wise arm (Step-wise titration algorithm)
  HbA1c change from baseline to Week 26: −0.93%
[2]; IDegStep-wise arm
  Patients achieving HbA1c<7% without confirmed hypoglycemia: 34.6%
  Subjects achieving HbA1c<7.0% at end-of-trial: 41.4%
  HbA1c at Week 26: 7.2%
[2]; Week 26, 95% CI [−0.39, 0.07]
  Estimated treatment difference (IDegSimple−IDegStep-wise) in HbA1c change: −0.16 %-points
[2]; Week 26, non-inferiority limit 0.4%
  Non-inferiority of IDegSimple to IDegStep-wise in lowering HbA1c: non-inferior
[3]
  Deaths: One
[4]
  Headache: N number of patients with events: 8
  SAE neoplasm event: astrocytoma
  SAEs: E number of events: 8
  SAEs: R number of events per 100 patient-years: 15 events per 100 patient-years
[5]
  Severe hypoglycemic episodes: One
[6]
  Confirmed and nocturnal confirmed hypoglycemia rates with IDeg OD versus comparator insulin glargine: lower than or similar to

## insulin detemir
[7]
  HbA1c versus standard-of-care, physician-driven adjustments: significantly lower HbA1c

## insulin glargine
[8]
  End HbA1c: 7.0%

Reference: US12226458B2, “System for providing an up-to-date and long-acting or ultra-long-acting insulin dose guidance recommendation to treat diabetes mellitus” (Novo Nordisk A/S, priority 2018, dated 2025)
